These results are taken from patent US10653674B2, “Multisubstituted aromatic compounds as inhibitors of thrombin” (VERSEON CORPORATION, priority 2010, dated 2020).

For orientation: melting point means the temperature, or range, at which the solid turns liquid. A word on the IC50: it is the concentration at which inhibition is half-maximal. A low value points to higher potency.

Molecules are shown by their SMILES.

The target in one data set is T1, Human thrombin (Homo sapiens, UniProt P00734).
T1 construct: purchased Haematologic Technologies Inc
As to the kind of experiment: Thrombin protease inhibition assay, chromogenic substrate S-2238. It is filed as biochemical. To be noted: inhibition of the protease activity of thrombin, Table A. As to the method:
Compounds described herein can be assayed, by a variety of methods known in the art and described herein, for inhibition of biological activity, e.g., protease activity, of a variety of proteins, e.g., thrombin.
The thrombin activity reported herein (e.g., Table A) was obtained as follows. […] Thrombin was assayed in buffer containing 0.05 M Tris (pH 7.4), 0.015 M NaCl and 0.01% PEG-8000. The final concentration of enzyme used was 3 nM thrombin. […] All assays were performed in 96-well microtiter plates at room temperature (RT). […] Inhibitor IC50 values were determined by adding test compound as ten point, three-fold serial dilutions in buffer solution, as known in the art. The plate was read at 10 minutes after substrate addition. The IC50 was calculated by plotting the percent (%) inhibition against compound concentration and fitting the data to a constrained four parameter sigmoidal curve, as known in the art.

Another data set deals with malignant breast tumors. The following applies: cited from earlier work.

Consider `Fc1ccc(CNc2nc(-c3cccnc3)n[nH]2)cc1` [Cmpd 4], for which the melting point is 185 to 186 °C. At Human thrombin, `CN(C)C(=O)c1n[nH]c(C(=O)Nc2ccccc2Cl)n1` [Cmpd 186, 5-C-(2-chlorobenzene)-3-N,3-N-dimethyl-1H-1,2,4-triazole-3,5-dicarboxamide] registered an IC50 above 1000 nM. Still for that read-out and setting: the value for `CNC(=O)c1n[nH]c(C(=O)Nc2ccccc2Cl)n1` [Cmpd 187, 5-C-(2-chlorobenzene)-3-N-methyl-1H-1,2,4-triazole-3,5-dicarboxamide] was above 1000 nM. Turning to `CCCCCCOC(=O)NC(=N)c1ccc(NCc2nc3cc(C(=O)N(CCC(=O)OCC)c4ccccn4)ccc3n2C)cc1` [dabigatran etexilate], in the data set with malignant breast tumors (at 4 weeks, treated mice), the “reduction in tumor volume” value was 50%. Also, the “weight loss in treated mice” value in the data set on malignant breast tumors (at 4 weeks) is given as “no weight loss”. Further, the “reduction of tumor cells in the blood and liver micrometastases” value with malignant breast tumors (mouse, in vivo) is listed as 50-60%.
